Experimental data reported in ChEMBL document CHEMBL1795250, “Synthesis and base-pairing properties of C-nucleotides having 1-substituted 1H-1,2,3-triazoles” (Bioorg Med Chem Lett, 2009).

How the values were obtained:
Assay type in all cases: nucleic-acid assay
[1] = tested on: Nucleic Acid; test: Stabilization of 5'-AGAGAGACAGAAAAA-3' ssDNA sequence assessed as melting temperature at pH7 using 100 mM NaCl
[2] = tested on: Nucleic Acid; test: Stabilization of 5'-AGAGAGATAGAAAAA-3' ssDNA sequence assessed as melting temperature at pH7 using 100 mM NaCl
[3] = tested on: Nucleic Acid; test: Stabilization of 5'-AGAGAGAGAGAAAAA-3' ssDNA sequence assessed as melting temperature at pH7 using 100 mM NaCl
[4] = tested on: Nucleic Acid; test: Stabilization of 5'-AGAGAGAAAGAAAAA-3' ssDNA sequence assessed as melting temperature at pH7 using 100 mM NaCl

| SMILES | Tm [1] [°C] | Tm [2] [°C] | Tm [3] [°C] | Tm [4] [°C] |
| --- | --- | --- | --- | --- |
| Cc1ccc(-n2cc([C@H]3C[C@H](OP(=O)(O)OC[C@H]4O[C@@H](n5cc(C)c(=O)[nH]c5=O)C[C@@H]4OP(=O)(O)OC[C@H]4O[C@@H](n5cc(C)c(N)nc5=O)C[C@@H]4OP(=O)(O)OC[C@H]4O[C@@H](n5cc(C)c(=O)[nH]c5=O)C[C@@H]4OP(=O)(O)OC[C@H]4O[C@@H](n5cc(C)c(N)nc5=O)C[C@@H]4OP(=O)(O)OC[C@H]4O[C@@H](n5cc(C)c(=O)[nH]c5=O)C[C@@H]4OP(=O)(O)OC[C@H]4O[C@@H](n5cc(C)c(N)nc5=O)C[C@@H]4OP(=O)(O)OC[C@H]4O[C@@H](n5cc(C)c(=O)[nH]c5=O)C[C@@H]4O)[C@@H](COP(=O)(O)O[C@H]4C[C@H](n5cc(C)c(=O)[nH]c5=O)O[C@@H]4COP(=O)(O)O[C@H]4C[C@H](n5cc(C)c(N)nc5=O)O[C@@H]4COP(=O)(O)O[C@H]4C[C@H](n5cc(C)c(=O)[nH]c5=O)O[C@@H]4COP(=O)(O)O[C@H]4C[C@H](n5cc(C)c(=O)[nH]c5=O)O[C@@H]4COP(=O)(O)O[C@H]4C[C@H](n5cc(C)c(=O)[nH]c5=O)O[C@@H]4COP(=O)(O)O[C@H]4C[C@H](n5cc(C)c(=O)[nH]c5=O)O[C@@H]4COP(=O)(O)O[C@H]4C[C@H](n5cc(C)c(=O)[nH]c5=O)O[C@@H]4CO)O3)nn2)cc1 | 36 | 38 | 42 | 39 |
| C#C[C@H]1C[C@H](OP(=O)(O)OC[C@H]2O[C@@H](n3cc(C)c(=O)[nH]c3=O)C[C@@H]2OP(=O)(O)OC[C@H]2O[C@@H](n3cc(C)c(N)nc3=O)C[C@@H]2OP(=O)(O)OC[C@H]2O[C@@H](n3cc(C)c(=O)[nH]c3=O)C[C@@H]2OP(=O)(O)OC[C@H]2O[C@@H](n3cc(C)c(N)nc3=O)C[C@@H]2OP(=O)(O)OC[C@H]2O[C@@H](n3cc(C)c(=O)[nH]c3=O)C[C@@H]2OP(=O)(O)OC[C@H]2O[C@@H](n3cc(C)c(N)nc3=O)C[C@@H]2OP(=O)(O)OC[C@H]2O[C@@H](n3cc(C)c(=O)[nH]c3=O)C[C@@H]2O)[C@@H](COP(=O)(O)O[C@H]2C[C@H](n3cc(C)c(=O)[nH]c3=O)O[C@@H]2COP(=O)(O)O[C@H]2C[C@H](n3cc(C)c(N)nc3=O)O[C@@H]2COP(=O)(O)O[C@H]2C[C@H](n3cc(C)c(=O)[nH]c3=O)O[C@@H]2COP(=O)(O)O[C@H]2C[C@H](n3cc(C)c(=O)[nH]c3=O)O[C@@H]2COP(=O)(O)O[C@H]2C[C@H](n3cc(C)c(=O)[nH]c3=O)O[C@@H]2COP(=O)(O)O[C@H]2C[C@H](n3cc(C)c(=O)[nH]c3=O)O[C@@H]2COP(=O)(O)O[C@H]2C[C@H](n3cc(C)c(=O)[nH]c3=O)O[C@@H]2CO)O1 | 29 | 31 | 32 | 32 |
| Cc1cn([C@H]2C[C@H](OP(=O)(O)OC[C@H]3O[C@@H](n4cc(C)c(=O)[nH]c4=O)C[C@@H]3OP(=O)(O)OC[C@H]3O[C@@H](n4cc(C)c(N)nc4=O)C[C@@H]3OP(=O)(O)OC[C@H]3O[C@@H](n4cc(C)c(=O)[nH]c4=O)C[C@@H]3OP(=O)(O)OC[C@H]3O[C@@H](n4cc(C)c(N)nc4=O)C[C@@H]3OP(=O)(O)OC[C@H]3O[C@@H](n4cc(C)c(=O)[nH]c4=O)C[C@@H]3O)[C@@H](COP(=O)(O)O[C@H]3C[C@H](n4cc(C)c(=O)[nH]c4=O)O[C@@H]3COP(=O)(O)O[C@H]3C[C@H](c4cn(C5CCCCC5)nn4)O[C@@H]3COP(=O)(O)O[C@H]3C[C@H](n4cc(C)c(=O)[nH]c4=O)O[C@@H]3COP(=O)(O)O[C@H]3C[C@H](n4cc(C)c(N)nc4=O)O[C@@H]3COP(=O)(O)O[C@H]3C[C@H](n4cc(C)c(=O)[nH]c4=O)O[C@@H]3COP(=O)(O)O[C@H]3C[C@H](n4cc(C)c(=O)[nH]c4=O)O[C@@H]3COP(=O)(O)O[C@H]3C[C@H](n4cc(C)c(=O)[nH]c4=O)O[C@@H]3COP(=O)(O)O[C@H]3C[C@H](n4cc(C)c(=O)[nH]c4=O)O[C@@H]3COP(=O)(O)O[C@H]3C[C@H](n4cc(C)c(=O)[nH]c4=O)O[C@@H]3CO)O2)c(=O)nc1N | 34 | 33 | 37 | 34 |
| Cc1cn([C@H]2C[C@H](OP(=O)(O)OC[C@H]3O[C@@H](n4cc(C)c(=O)[nH]c4=O)C[C@@H]3OP(=O)(O)OC[C@H]3O[C@@H](n4cc(C)c(N)nc4=O)C[C@@H]3OP(=O)(O)OC[C@H]3O[C@@H](n4cc(C)c(=O)[nH]c4=O)C[C@@H]3OP(=O)(O)OC[C@H]3O[C@@H](n4cc(C)c(N)nc4=O)C[C@@H]3OP(=O)(O)OC[C@H]3O[C@@H](n4cc(C)c(=O)[nH]c4=O)C[C@@H]3O)[C@@H](COP(=O)(O)O[C@H]3C[C@H](n4cc(C)c(=O)[nH]c4=O)O[C@@H]3COP(=O)(O)O[C@H]3C[C@H](c4cn(CCCCCCCCCCO)nn4)O[C@@H]3COP(=O)(O)O[C@H]3C[C@H](n4cc(C)c(=O)[nH]c4=O)O[C@@H]3COP(=O)(O)O[C@H]3C[C@H](n4cc(C)c(N)nc4=O)O[C@@H]3COP(=O)(O)O[C@H]3C[C@H](n4cc(C)c(=O)[nH]c4=O)O[C@@H]3COP(=O)(O)O[C@H]3C[C@H](n4cc(C)c(=O)[nH]c4=O)O[C@@H]3COP(=O)(O)O[C@H]3C[C@H](n4cc(C)c(=O)[nH]c4=O)O[C@@H]3COP(=O)(O)O[C@H]3C[C@H](n4cc(C)c(=O)[nH]c4=O)O[C@@H]3COP(=O)(O)O[C@H]3C[C@H](n4cc(C)c(=O)[nH]c4=O)O[C@@H]3CO)O2)c(=O)nc1N | 39 | 39 | 39 | 35 |
| Cc1cn([C@H]2C[C@H](OP(=O)(O)OC[C@H]3O[C@@H](n4cc(C)c(=O)[nH]c4=O)C[C@@H]3OP(=O)(O)OC[C@H]3O[C@@H](n4cc(C)c(N)nc4=O)C[C@@H]3OP(=O)(O)OC[C@H]3O[C@@H](n4cc(C)c(=O)[nH]c4=O)C[C@@H]3O)[C@@H](COP(=O)(O)O[C@H]3C[C@H](n4cc(C)c(=O)[nH]c4=O)O[C@@H]3COP(=O)(O)O[C@H]3C[C@H](n4cc(C)c(N)nc4=O)O[C@@H]3COP(=O)(O)O[C@H]3C[C@H](n4cc(C)c(=O)[nH]c4=O)O[C@@H]3COP(=O)(O)O[C@H]3C[C@H](n4cc(C)c(=O)[nH]c4=O)O[C@@H]3COP(=O)(O)O[C@H]3C[C@H](n4cc(C)c(=O)[nH]c4=O)O[C@@H]3COP(=O)(O)O[C@H]3C[C@H](n4cc(C)c(N)nc4=O)O[C@@H]3COP(=O)(O)O[C@H]3C[C@H](n4cc(C)c(=O)[nH]c4=O)O[C@@H]3COP(=O)(O)O[C@H]3C[C@H](n4cc(C)c(=O)[nH]c4=O)O[C@@H]3COP(=O)(O)O[C@H]3C[C@H](n4cc(C)c(=O)[nH]c4=O)O[C@@H]3COP(=O)(O)O[C@H]3C[C@H](n4cc(C)c(=O)[nH]c4=O)O[C@@H]3COP(=O)(O)O[C@H]3C[C@H](n4cc(C)c(=O)[nH]c4=O)O[C@@H]3CO)O2)c(=O)nc1N | 39 | 42 | 42 | 52 |
